{"source": "patent US20070160554A1", "about": "“Acyl ribonucleosides and acyl deoxyribonucleosides, compositions of, and methods of making same” (COGNIS IP MANAGEMENT GMBH, priority 2003, published 2007)", "key": {"human fibroblasts [1]": {"tested_on": "human fibroblasts", "conditions": "for Proteins (level of cellular proteins) / LD50: 3 days; for LD50: human", "experimental": "In a first experiment, human fibroblasts were inoculated in a standard cell culture medium of foetal calf serum (or FCS). After an incubation of 1 day at 37° C. under an atmosphere of air, enriched to a carbon dioxide content of 5%, the growth medium was exchanged for a standard medium with a range of concentrations of uridine, uridine palmitate and uridine stearate."}, "[2]": {"tested_on": "Melanocytes (B16 cell line)", "test": "Inhibition of melanin synthesis in B16 melanocytes (melanin by optical density at 475 nm, cellular proteins by Bradford)", "assay_type": "cell-based, mouse", "conditions": "for effect on the rate of released melanin / inhibition of melanin synthesis: B16 melanocytes, at concentrations not toxic to human fibroblasts; for Rate of Melanin / Rate of cellular proteins: B16, 3 days", "text": "Melanin is the pigment responsible for the colour of skin and hairs. Melanin synthesis takes place in specific organelles so called melanosomes in human melanocytes located in the basal layer of the human epidermis. This synthesis begins by oxidation of tyrosine to DOPA (dihydroxy-phenyl-alanine) by tyrosinase and then DOPA polymerises to melanin which is stored in melanosomes.\nMelanocytes (B16 cell line: B16 is the name of the mouse melanoma cells used in this test.) were inoculated in standard cell culture medium of foetal calf serum (FCS). […] Uridine palmitate and ulidine stearate were added to the culture medium starting from a stock solution at 1% (w/v) in DMSO. After an incubation of 3 days, the number of viable cells was determined by the evaluation of the levels of cellularproteins (Bradford's method) and the level of synthesized melanin was measured by recording the optical density at 475 nm of cell's homogenate. The results are expressed in table 4."}, "human fibroblasts [3]": {"tested_on": "human fibroblasts", "test": "Non-toxicity on quiescent human fibroblasts (second experiment: DNA, ATP, proteins, GSH/proteins)", "assay_type": "cell-based", "conditions": "for ATP / DNA / GSH/proteins / Proteins: quiescent fibroblasts, 3 days; for modification of growth, energetic metabolism and protein metabolism of the fibroblasts: human fibroblasts in vitro", "experimental": "Uridine palmitate and uridine stearate were added in the culture medium starting from a stock solution at 1% (w/v) in DMSO. After an incubation of 3 days the number of viable cells was determined by evaluation of the levels of cellular DNA (fluorescent probe), ATP, proteins (Bradford's method) and the rate of cellular GSH (GSH is glutathione) normalised to the level of cellular proteins."}}, "note": "Where two headings read alike, the source gives them in different places."}
{"smiles": "CCCCCCCCCCCCCCCC(=O)O[C@@H]1[C@H](O)[C@@H](CO)O[C@H]1n1ccc(=O)[nH]c1=O", "note": "[Mono-O-palmitoyl uridine, Mono-O-Palmitoyl Uridine]", "values": [{"measurement": "toxic effects on growing human fibroblasts cultured in vitro", "setting": "human fibroblasts [1]", "value": "not shown any toxic effects"}, {"measurement": "Proteins (level of cellular proteins)", "setting": "human fibroblasts [1]; dose 0.003 % w/v", "value": 92, "unit": "%/control"}, {"measurement": "Proteins (level of cellular proteins)", "setting": "human fibroblasts [1]; dose 0.01 % w/v", "value": 97, "unit": "%/control"}, {"measurement": "LD50", "setting": "human fibroblasts [1]", "value": ">0.01", "unit": "% w/v"}, {"measurement": "effect on the rate of released melanin / inhibition of melanin synthesis", "setting": "[2]", "value": "strongly decreased the rate of released melanin"}, {"measurement": "Rate of Melanin", "setting": "[2]; dose 0.001 % w/v", "value": 98, "unit": "% against control"}, {"measurement": "Rate of cellular proteins", "setting": "[2]; dose 0.001 % w/v", "value": 100, "unit": "% against control"}, {"measurement": "Rate of Melanin", "setting": "[2]; dose 0.003 % w/v", "value": 69, "unit": "% against control"}, {"measurement": "Rate of cellular proteins", "setting": "[2]; dose 0.003 % w/v", "value": 95, "unit": "% against control"}, {"measurement": "Rate of Melanin", "setting": "[2]; dose 0.01 % w/v", "value": 44, "unit": "% against control"}, {"measurement": "Rate of cellular proteins", "setting": "[2]; dose 0.01 % w/v", "value": 110, "unit": "% against control"}, {"measurement": "ATP", "setting": "human fibroblasts [3]; dose 0,001 % w/v", "value": 111, "unit": "%/control"}, {"measurement": "DNA", "setting": "human fibroblasts [3]; dose 0,001 % w/v", "value": 92, "unit": "%/control"}, {"measurement": "GSH/proteins", "setting": "human fibroblasts [3]; dose 0,001 % w/v", "value": 103, "unit": "%/control"}, {"measurement": "Proteins", "setting": "human fibroblasts [3]; dose 0,001 % w/v", "value": 98, "unit": "%/control"}, {"measurement": "ATP", "setting": "human fibroblasts [3]; dose 0,003 % w/v", "value": 86, "unit": "%/control"}, {"measurement": "DNA", "setting": "human fibroblasts [3]; dose 0,003 % w/v", "value": 83, "unit": "%/control"}, {"measurement": "GSH/proteins", "setting": "human fibroblasts [3]; dose 0,003 % w/v", "value": 108, "unit": "%/control"}, {"measurement": "Proteins", "setting": "human fibroblasts [3]; dose 0,003 % w/v", "value": 91, "unit": "%/control"}, {"measurement": "modification of growth, energetic metabolism and protein metabolism of the fibroblasts", "setting": "human fibroblasts [3]", "value": "not modified the growth of the fibroblasts"}]}
{"smiles": "CCCCCCCCCCCCCCCCCC(=O)O[C@@H]1[C@H](O)[C@@H](CO)O[C@H]1n1ccc(=O)[nH]c1=O", "note": "[Mono-O-stearoyl uridine, Mono-O-Stearoyl Uridine]", "values": [{"measurement": "toxic effects on growing human fibroblasts cultured in vitro", "setting": "human fibroblasts [1]", "value": "not shown any toxic effects"}, {"measurement": "Proteins (level of cellular proteins)", "setting": "human fibroblasts [1]; dose 0.0005 % w/v", "value": 90, "unit": "%/control"}, {"measurement": "Proteins (level of cellular proteins)", "setting": "human fibroblasts [1]; dose 0.0015 % w/v", "value": 87, "unit": "%/control"}, {"measurement": "LD50", "setting": "human fibroblasts [1]", "value": ">0.01", "unit": "% w/v"}, {"measurement": "effect on the rate of released melanin / inhibition of melanin synthesis", "setting": "[2]", "value": "strongly decreased the rate of released melanin"}, {"measurement": "Rate of Melanin", "setting": "[2]; dose 0.001 % w/v", "value": 84, "unit": "% against control"}, {"measurement": "Rate of cellular proteins", "setting": "[2]; dose 0.001 % w/v", "value": 98, "unit": "% against control"}, {"measurement": "Rate of Melanin", "setting": "[2]; dose 0.003 % w/v", "value": 65, "unit": "% against control"}, {"measurement": "Rate of cellular proteins", "setting": "[2]; dose 0.003 % w/v", "value": 92, "unit": "% against control"}, {"measurement": "Rate of Melanin", "setting": "[2]; dose 0.01 % w/v", "value": 19, "unit": "% against control"}, {"measurement": "Rate of cellular proteins", "setting": "[2]; dose 0.01 % w/v", "value": 99, "unit": "% against control"}, {"measurement": "ATP", "setting": "human fibroblasts [3]; dose 0,0015 % w/v", "value": 91, "unit": "%/control"}, {"measurement": "DNA", "setting": "human fibroblasts [3]; dose 0,0015 % w/v", "value": 94, "unit": "%/control"}, {"measurement": "GSH/proteins", "setting": "human fibroblasts [3]; dose 0,0015 % w/v", "value": 98, "unit": "%/control"}, {"measurement": "Proteins", "setting": "human fibroblasts [3]; dose 0,0015 % w/v", "value": 96, "unit": "%/control"}, {"measurement": "ATP", "setting": "human fibroblasts [3]; dose 0,005 % w/v", "value": 92, "unit": "%/control"}, {"measurement": "DNA", "setting": "human fibroblasts [3]; dose 0,005 % w/v", "value": 100, "unit": "%/control"}, {"measurement": "GSH/proteins", "setting": "human fibroblasts [3]; dose 0,005 % w/v", "value": 135, "unit": "%/control"}, {"measurement": "Proteins", "setting": "human fibroblasts [3]; dose 0,005 % w/v", "value": 95, "unit": "%/control"}, {"measurement": "modification of growth, energetic metabolism and protein metabolism of the fibroblasts", "setting": "human fibroblasts [3]", "value": "not modified the growth of the fibroblasts"}]}
{"smiles": "CCCC(=O)OC[C@H]1O[C@@H](n2ccc(=O)[nH]c2=O)[C@H](OC(=O)CCC)[C@@H]1OC(=O)CCC", "note": "[Tri-O-Butyryl-Uridine, reference compound]", "values": [{"measurement": "effect on the rate of released melanin / inhibition of melanin synthesis", "setting": "[2]", "value": "no or only a very poor effect"}, {"measurement": "Rate of Melanin", "setting": "[2]; dose 0.001 % w/v", "value": 106, "unit": "% against control"}, {"measurement": "Rate of cellular proteins", "setting": "[2]; dose 0.001 % w/v", "value": 100, "unit": "% against control"}, {"measurement": "Rate of Melanin", "setting": "[2]; dose 0.003 % w/v", "value": 106, "unit": "% against control"}, {"measurement": "Rate of cellular proteins", "setting": "[2]; dose 0.003 % w/v", "value": 106, "unit": "% against control"}, {"measurement": "Rate of Melanin", "setting": "[2]; dose 0.01 % w/v", "value": 105, "unit": "% against control"}, {"measurement": "Rate of cellular proteins", "setting": "[2]; dose 0.01 % w/v", "value": 103, "unit": "% against control"}]}
{"smiles": "O=c1ccn([C@@H]2O[C@H](CO)[C@@H](O)[C@H]2O)c(=O)[nH]1", "note": "[Uridine, uridine, reference compound]", "values": [{"measurement": "Proteins (level of cellular proteins)", "setting": "human fibroblasts [1]; dose 0.03 % w/v", "value": 104, "unit": "%/control"}, {"measurement": "Proteins (level of cellular proteins)", "setting": "human fibroblasts [1]; dose 0.1 % w/v", "value": 99, "unit": "%/control"}, {"measurement": "effect on the rate of released melanin / inhibition of melanin synthesis", "setting": "[2]", "value": "no or only a very poor effect"}, {"measurement": "Rate of Melanin", "setting": "[2]; dose 0.03 % w/v", "value": 92, "unit": "% against control"}, {"measurement": "Rate of cellular proteins", "setting": "[2]; dose 0.03 % w/v", "value": 94, "unit": "% against control"}, {"measurement": "Rate of Melanin", "setting": "[2]; dose 0.1 % w/v", "value": 92, "unit": "% against control"}, {"measurement": "Rate of cellular proteins", "setting": "[2]; dose 0.1 % w/v", "value": 97, "unit": "% against control"}, {"measurement": "ATP", "setting": "human fibroblasts [3]; dose 0,01 % w/v", "value": 100, "unit": "%/control"}, {"measurement": "DNA", "setting": "human fibroblasts [3]; dose 0,01 % w/v", "value": 103, "unit": "%/control"}, {"measurement": "GSH/proteins", "setting": "human fibroblasts [3]; dose 0,01 % w/v", "value": 107, "unit": "%/control"}, {"measurement": "Proteins", "setting": "human fibroblasts [3]; dose 0,01 % w/v", "value": 100, "unit": "%/control"}, {"measurement": "ATP", "setting": "human fibroblasts [3]; dose 0,03 % w/v", "value": 89, "unit": "%/control"}, {"measurement": "DNA", "setting": "human fibroblasts [3]; dose 0,03 % w/v", "value": 94, "unit": "%/control"}, {"measurement": "GSH/proteins", "setting": "human fibroblasts [3]; dose 0,03 % w/v", "value": 102, "unit": "%/control"}, {"measurement": "Proteins", "setting": "human fibroblasts [3]; dose 0,03 % w/v", "value": 104, "unit": "%/control"}]}
